# Results from PubChem BioAssay AID1996.
# Conditions: buffer; pH 7.4; 200.0 µM
row,Compound,solubility kinetic [µg/mL]
1,COC(=O)Nc1ccc(S(=O)(=O)N2CCCc3cccc(O)c32)cc1,2.1
2,CN(CC(=O)Nc1ccc(Cl)c(C(F)(F)F)c1)C(=O)COC(=O)C1CC2CCCC(C1)C2=O (stereo not given),59.2
3,N#Cc1ccccc1CSc1ncccc1C(=O)O,> 40.5
4,COc1ccc(N=C2NC(=O)/C(=C\c3ccco3)S2)cc1,2.6
5,CC(=O)c1cccc(Nc2nc(-c3sc(N)nc3C)cs2)c1,4.5
6,Cc1ccc(S(=O)(=O)NCC(=O)OCC(=O)Nc2ccc(C)c(S(=O)(=O)N3CCOCC3)c2)cc1,> 78.8
7,O=C(Nc1ccc2ccccc2n1)c1ccccc1Cl,1.1
8,N#Cc1cnc(Oc2ccc(Cl)cc2)nc1N,4.3
9,CCOc1ccccc1NC(=O)Nc1ccsc1C(=O)OC,7.9
10,O=C(COC(=O)/C=C/c1ccccc1Cl)NC(=O)NC1CCCC1,8.2
11,CN(CC(=O)Nc1sccc1C(N)=O)S(=O)(=O)c1ccc(Cl)cc1,8.7
12,COC(=O)c1scc(C)c1NC(=O)CSc1ccc(Cl)cc1,1.3
13,CC(NC(=O)c1ccccc1)C(=O)N/N=C/c1ccco1 (stereo not given),> 42.8
14,COc1ccc(-c2nc3ccccc3c(=O)n2CC(C)C)cc1,38.3
15,CCOC(=O)CCCNC(=O)COC(=O)c1cccc(F)c1,44.4
16,O=C(Nc1sc2c(c1C(=O)O)CCCCC2)c1cccnc1,> 47.5
17,Clc1cc(Cl)cc(CN2CCSCC2)c1,4.5
18,CC(C)c1ccc(CNC(=O)C(=O)NCCCn2ccnc2)cc1,45.4
19,CCOC(=O)c1ccc(N=C(C)c2c(O)[nH]c(=O)[nH]c2=O)cc1,6.6
20,CCOc1cccc(CN2CCN(Cc3ccc(C)o3)C(CCO)C2)c1O (stereo not given),> 56.2
21,N#C/C(=C\c1ccccc1Cl)C(=O)Nc1ccccn1,37.7
22,Nc1nc(NCCc2ccccc2)nc(NCc2ccccc2)c1[N+](=O)[O-],0.2

row,Compound,solubility kinetic [µg/mL]
1,CCC(C)NCCOc1cc(C)cc(C)c1C.O=C(O)C(=O)O (stereo not given),35.1
2,Cc1ccc(C(=O)Nc2ccccc2Cl)cc1,21
3,Cc1cccc(NC(=S)N2CCN(C(=O)c3ccco3)CC2)c1,> 49.4
4,CC(=O)Nc1ccc(NC(=O)C(c2ccccc2)c2ccccc2)cc1,0.8
5,CCCCCC(=O)NNC1CC(=O)N(c2ccccc2)C1=O (stereo not given),> 45.5
6,Cc1c(C(=O)O)[nH]c2c1C(=O)CC(c1ccc(C(C)(C)C)cc1)C2 (stereo not given),> 48.8
7,CCOC(=O)c1sc(NC(=O)C2=COCCO2)c(C#N)c1C,13.5
8,COc1cc2c(cc1OC)CN(C(=O)c1ccc(Br)o1)CC2,> 54.9
9,CCOC(=O)C1CCCN(Cc2cccc(Oc3ccccc3)c2)C1 (stereo not given),3.1
10,O=C(O)CCCNC(=O)Cc1ccccc1,> 33.2
11,O=C(Nc1ccc(COc2ccccc2)cc1)Nc1cccc(C(=O)O)c1,12.1
12,C/C(=N\OCC(=O)Nc1ccccc1C(=O)O)c1cccs1,> 47.8
13,Cc1ccc(OCC(=O)N2CCC(C)CC2)c([N+](=O)[O-])n1,43
14,Cc1ccc(-c2nc(-c3ccncc3)no2)cc1Cl,< 0.2
15,CCN(CC(=O)NC1CC1)S(=O)(=O)c1ccc(OC)cc1,> 46.9
16,CSc1ccc(Cl)c(C(=O)Nc2ccc(Cl)cn2)c1,0.5
17,COc1cccc(CC2(CO)CCN(S(=O)(=O)N(C)C)CC2)c1,> 51.4
18,CC(=O)c1c(C)n(CCc2ccc(Cl)cc2)c2ccc(O)cc12,< 0.7
19,COc1ccccc1CC(=O)N1CCN(CCc2ccccc2)CC1,> 50.8
20,O=C1NCC(O)=C1C=Nc1ccccc1O,> 32.7
21,c1ccc(-c2ccc(-c3ccccn3)s2)nc1,4.2
22,O=C(NCCc1ccccc1)c1ccc(NC(=O)c2cccnc2)cc1,4.3

row,Compound,solubility kinetic [µg/mL]
1,COc1ccccc1NC(=O)NCCc1ccccc1,> 40.5
2,COc1ccccc1C(=O)OCC(=O)NC1CCCC1,> 41.6
3,CCOC(=O)N1CCN(C(=S)NC(=O)/C=C/c2ccc(C)cc2)CC1,18.1
4,CNCc1sccc1C.Cl,> 26.7
5,Cl.OC(c1ccc(Cl)cc1)c1nccc2ccccc12 (stereo not given),31.1
6,CC(C)c1nc(SCC(=O)Nc2cccc3ccccc23)n[nH]1,> 49
7,COc1ccccc1OCC(O)COC(N)=O (stereo not given),29.9
8,O=C1CN(C(=O)COC(=O)CCC(=O)c2ccc(Cl)cc2)c2ccccc2N1,57.2
9,CCOC(=O)CC(=O)COc1nc2cc3c(nc2o1)CCCC3,> 47.7
10,CN(C)C(=O)Oc1ccc2c(c1)O/C(=C\c1cccc([N+](=O)[O-])c1)C2=O,< 0.4
11,O=C(COC(=O)COc1ccccc1)NCc1ccc2c(c1)OCO2,> 51.5
12,CC1=C([N+](=O)[O-])C(c2ccccc2C(F)(F)F)NC(=O)N1C (stereo not given),> 47.3
13,C/C(N)=C(/C#N)C(=O)COC(=O)C1CCN(S(=O)(=O)c2cccs2)CC1,10.9
14,Cc1cccc(C)c1NC(=O)CNC(=O)c1cnccn1,> 42.6
15,Cc1cccc(CC2CC(=O)N(CCc3ccc4c(c3)OCO4)C2=O)c1 (stereo not given),11.5
16,CN(C)/C=C/C(=O)c1ccc(Oc2ncccn2)cc1,> 40.4
17,c1ccc(Cn2c(NCc3ccncc3)nc3ccccc32)cc1,> 47.2
18,CCc1nc2cccnc2n1-c1ccc(CC(=O)O)cc1,> 42.2
19,CC1(C)CCC(=O)N(c2ccc(OC(F)(F)F)cc2)C1=O,> 45.2
20,C[N+](C)(C)CCOC(=O)CCC(=O)OCC[N+](C)(C)C.O.[Cl-],> 59.6
21,COCCNC(=O)C(C)OC(=O)C1=Cc2ccccc2OC1 (stereo not given),> 45.8
22,O=C(O)CSc1c2c(nc3cc(C(=O)N4CCCC4)ccc13)CCCC2,48.6

row,Compound,solubility kinetic [µg/mL]
1,Cc1ccc(C(=O)OCC(=O)NCCC2=CCCCC2)cc1N,21
2,CC1CN(Cc2cc(=O)oc3cc(O)ccc23)CC(C)O1 (stereo not given),> 43.4
3,O=C(Nc1ccc2ccccc2n1)C1CCCCC1,26.6
4,N#Cc1cc(N)ccc1-n1cccc1,27.2
5,COc1ccc(CCNC(=O)Nc2cccs2)c(OC)c1,15.6
6,O=C(NC1CCCCC1)c1cccc(S(=O)(=O)N2CCCCC2)c1,5.6
7,Cc1[nH]c2ccccc2c1C(c1ccncc1)N1CCC(C)CC1 (stereo not given),> 47.9
8,CCCOc1cccc(C(=O)Nc2ccc(CN3CCOCC3)cc2)c1,47.2
9,COc1ccc(CCNC(=O)COC(=O)C2CC2)cc1OC,> 46.1
10,CCN(CC)c1ccc(/C=C(\C#N)C(N)=O)cc1,> 36.5
11,O=C(CNC(=O)c1ccc(N2CCCC2=O)cc1)Nc1ccc(F)c(F)c1F,5.5
12,Cc1cccc(NC(=O)COC(=O)c2ccccn2)c1,34.9
13,CCC(CCC(=O)Nc1cccc([N+](=O)[O-])c1)C(=O)O (stereo not given),> 42
14,Cc1cccc(C(=O)OCc2cncs2)c1,28.9
15,O=S(=O)(Nc1ccccc1N1CCOCC1)c1cccs1,4.2
16,N#Cc1ccc(-c2cn3c(n2)SCC3)cc1,> 34.1
17,CCCN(C(=O)/C=C/c1ccc(S(=O)(=O)N(CC)CC)cc1)C1CCS(=O)(=O)C1 (stereo not given),> 66.4
18,S=C(c1c[nH]c2ccccc12)N1CCOCC1,> 36.9
19,O=C(COC(=O)CCN1C(=O)C2CC=CCC2C1=O)Nc1ccc([N+](=O)[O-])cc1 (stereo not given),> 60.2
